Measured values from patent publication US7858647B2, “N-[1,3,4]-thiadiazol-2-yl-benzene sulfonamides, pharmaceutical compositions thereof and methods for their therapeutic use” (Sanofi-Aventis, priority 2005, dated 2010).

biological target: T1, human PPARgamma (Homo sapiens, UniProt P37231); experiment: Cellular PPARgamma assay (luciferase reporter, transiently transfected HEK cells); assay type: cell-based; settings: GAL4-humanPPARgammaLBD
T1 construct: amino acids I152-Y475; expressed in transfected cells; host or cells: HEK cells (transient transfection of pcDNA3-GAL4-humanPPARgammaLBD)
T1 sequence (P37231 182-477 isoform P37231-2 limits assumed): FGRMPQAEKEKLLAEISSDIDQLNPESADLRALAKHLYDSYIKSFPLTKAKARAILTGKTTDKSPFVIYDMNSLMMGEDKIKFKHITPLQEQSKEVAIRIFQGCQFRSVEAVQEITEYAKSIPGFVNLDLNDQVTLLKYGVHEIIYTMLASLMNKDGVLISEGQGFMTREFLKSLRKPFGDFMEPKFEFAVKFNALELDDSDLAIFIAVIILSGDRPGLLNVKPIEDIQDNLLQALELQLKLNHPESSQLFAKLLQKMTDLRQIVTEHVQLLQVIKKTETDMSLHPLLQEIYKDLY
From the text: A transient transfection system is employed to determine the cellular PPARgamma activity of PPAR agonists. It is based on the use of a luciferase reporter plasmid (pGL3basic-5×GAL4-TK) and of a PPARgamma expression plasmid (pcDNA3-GAL4-humanPPARgammaLBD). Both plasmids are transiently transfected into human embryonic kidney cells (HEK cells). There is then expression in these cells of the fusion protein GAL4-humanPPARgammaLBD which binds to the GAL4 binding sites of the reporter plasmid. In the presence of a PPARgamma-active ligand, the activated fusion protein GAL4-humanPPARgammaLBD induces expression of the luciferase reporter gene, which can be detected in the form of a chemiluminescence signal after addition of a luciferase substrate. As a difference from the stably transfected PPARalpha reporter cell line, in the cellular PPARgamma assay the two components (luciferase reporter plasmid and PPARgamma expression plasmid) are transiently transfected into HEK cells because stable and permanent expression of the PPARgamma fusion protein is cytotoxic.
The luciferase reporter plasmid pGL3basic-5×GAL4-TK is based on the vector pGL3basic from Promega. The reporter plasmid is prepared by cloning five binding sites of the yeast transcription factor GAL4 (each binding site with the sequence 5′-CTCGGAGGACAGTACTCCG-3′), together with a 160 bp-long thymidine kinase promoter section (Genbank Accession #AF027128) 5′-upstream into pGL3basic. 3′-downstream of the thymidine kinase promoter is the complete luciferase gene from Photinus pyralis (Genbank Accession #M15077) which is already a constituent of the plasmid pGL3basic used. The cloning and sequencing of the reporter plasmid pGL3basic-5×GAL4-TK took place in analogy to the description in Sambrook J. et. al. (Molecular cloning, Cold Spring Harbor Laboratory Press, 1989).
The PPARgamma expression plasmid pcDNA3-GAL4-humanPPARgammaLBD was prepared by first cloning the cDNA coding for amino acids 1-147 of the yeast transcription factor GAL4 (Genbank Accession #P04386) into the plasmid pcDNA3 (from Invitrogen) 3′-downstream of the cytomegalovirus promoter. Subsequently, the cDNA of the ligand-binding domain (LBD) of the human PPARgamma receptor (amino acids I152-Y475; Accession #g1480099) 3′-downstream of the GAL4 DNA binding domain. Cloning and sequencing of the PPARgamma expression plasmid pcDNA3-GAL4-humanPPARgammaLBD again took place in analogy to the description in Sambrook J. et. al. (Molecular cloning, Cold Spring Harbor Laboratory Press, 1989). Besides the luciferase reporter plasmid pGL3basic-5×GAL4-TK and the PPARgamma expression plasmid pcDNA3-GAL4-humanPPARgammaLBD, also used for the cellular PPARgamma assay are the reference plasmid pRL-CMV (from Promega) and the plasmid pBluescript SK(+) from Stratagene. All four plasmids were prepared using a plasmid preparation kit from Qiagen, which ensured a plasmid quality with a minimal endotoxin content, before transfection into HEK cells.
The activity of PPARgamma agonists is determined in a 4-day assay which is described below. Before the transfection, HEK cells are cultivated in DMEM (#41965-039, Invitrogen) which is mixed with the following additions: 10% FCS (#16000-044, Invitrogen), 1% penicillin-streptomycin solution (#15140-122, Invitrogen) and 2 mM L-glutamine (#25030-024, Invitrogen).
Firstly, solution A, a transfection mixture which contains all four plasmids previously described in addition to DMEM, is prepared. The following amounts are used to make up 3 ml of solution A for each 96 well microtiter plate for an assay: 2622 μl of antibiotic- and serum-free DMEM (#41965-039, Invitrogen), 100 μl of reference plasmid pRL-CMV (1 ng/μl), 100 μl of luciferase reporter plasmid pGL3basic-5×GAL4-TK (10 ng/μl), 100 μl of PPARgamma expression plasmid pcDNA3-GAL4-humanPPARgammaLBD (100 ng/μl) and 78 μl of plasmid pBluescript SK(+) (500 ng/μl). […]

Row | Structure (SMILES) | EC50 [nM]
1 | CC(C)(C)c1nnc(NS(=O)(=O)c2ccc(CCNC(=O)c3cc(Cl)ccc3Cl)cc2)s1 [Example 35, N-{2-[4-(5-tert-Butyl-[1,3,4]thiadiazol-2-ylsulfamoyl)-phenyl]-ethyl}-2,5-dichloro-benzamide] | 270
2 | Cc1ccc(Cl)cc1C(=O)NCCc1ccc(S(=O)(=O)Nc2nnc(-c3ccccc3)s2)cc1 [Example 32, 5-Chloro-2-methyl-N-{2-[4-(5-phenyl-[1,3,4]thiadiazol-2-ylsulfamoyl)-phenyl]-ethyl}-benzamide] | 4870
3 | CC(C)c1nnc(NS(=O)(=O)c2ccc(CNC(=O)c3ccc(C(F)(F)F)cc3)cc2)s1 [Example 24, N-[4-(5-Isopropyl-[1,3,4]thiadiazol-2-ylsulfamoyl)-benzyl]-4-trifluoromethyl-benzamide] | 1530
4 | Cc1cc(Br)c(C(=O)NCCc2ccc(S(=O)(=O)Nc3nnc(C(C)C)s3)cc2)s1 [Example 47, 3-Bromo-5-methyl-thiophene-2-carboxylic acid {2-[4-(5-isopropyl-[1,3,4]thiadiazol-2-ylsulfamoyl)-phenyl]-ethyl}-amide] | 1870
5 | CCOc1cc(C(F)(F)F)ccc1C(=O)NCC(C)c1ccc(S(=O)(=O)Nc2nnc(C(C)C)s2)cc1 (racemic) [Example 43, 2-Ethoxy-N-{2-[4-(5-isopropyl-[1,3,4]thiadiazol-2-ylsulfamoyl)-phenyl]-propyl}-4-trifluoromethyl-benzamide] | 90
6 | COc1cc(C(F)(F)F)ccc1C(=O)NCCc1ccc(S(=O)(=O)Nc2nnc(C(C)C)s2)cc1 [Example 1, N-{2-[4-(5-Isopropyl-[1,3,4]thiadiazol-2-ylsulfamoyl)-phenyl]-ethyl}-2-methoxy-4-trifluoromethyl-benzamide] | 380
7 | COc1ccc(C(=O)NCCc2ccc(S(=O)(=O)Nc3nnc(C(C)C)s3)cc2)c(OC)n1 [Example 5, N-{2-[4-(5-Isopropyl-[1,3,4]thiadiazol-2-ylsulfamoyl)-phenyl]-ethyl}-2,6-dimethoxy-nicotinamide] | 1110
8 | COc1ccc(C(C)(C)C)cc1C(=O)NCCc1ccc(S(=O)(=O)Nc2nnc(C(C)C)s2)cc1 [Example 2, 5-tert-Butyl-N-{2-[4-(5-isopropyl-[1,3,4]thiadiazol-2-ylsulfamoyl)-phenyl]-ethyl}-2-methoxy-benzamide] | 180

The next molecules have a lower EC50 than those just listed; values first:

Row | EC50 [nM] | Structure (SMILES)
9 | 70 | CCOc1cc(C(F)(F)F)ccc1C(=O)NCC(C)c1ccc(S(=O)(=O)Nc2nnc(C(C)C)s2)cc1 (single isomer, unassigned) [Example 43a]
10 | 10 | CCOc1cc(C(F)(F)F)ccc1C(=O)NCC(CC)c1ccc(S(=O)(=O)Nc2nnc(C(C)C)s2)cc1 (single isomer, unassigned) [Example 44b]
11 | 30 | CCOc1cc(C(F)(F)F)ccc1C(=O)NCC(CC)c1ccc(S(=O)(=O)Nc2nnc(C(C)C)s2)cc1 (single isomer, unassigned) [Example 44a]
12 | 70 | CCOc1cc(C(F)(F)F)ccc1C(=O)NCC(C)c1ccc(S(=O)(=O)Nc2nnc(C(C)C)s2)cc1 (single isomer, unassigned) [Example 43b]
